Assay results reported in ChEMBL document CHEMBL1201862, “PubChem BioAssay data set” (2004).
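All cell lines were grown in 96-well plates and treated with compound for 48 hours. GI50 = concentration required for 50% inhibition of growth.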 Active and inactive are the calls of the source. No stated cut-off is given here; in the data, active = GI50 up to about 1.1 µM and inactive = higher.

Tests used:
Experiment in all cases: inhibition of tumour cell growth, NCI panel, 48 h
SK-OV-3 = tested on: SK-OV-3
MCF7 = tested on: MCF7
U-251 = tested on: U-251
EKVX = tested on: EKVX
SF-539 = tested on: SF-539
SNB-78 = tested on: SNB-78
HL-60 = tested on: HL-60
M14 = tested on: M14
BT-549 = tested on: BT-549
NCI-H460 = tested on: NCI-H460
OVCAR-8 = tested on: OVCAR-8
T47D = tested on: T47D
COLO 205 = tested on: COLO 205
CCRF-CEM = tested on: CCRF-CEM
NCI-H23 = tested on: NCI-H23
HOP-62 = tested on: HOP-62
RXF 393 = tested on: RXF 393
SF-295 = tested on: SF-295
HCT-15 = tested on: HCT-15
HOP-92 = tested on: HOP-92

Which results are given for `O=C1NC2(CCCCC2)C(=O)N1CCN(CCCl)CCCl` [SPIROMUSTINE]?
GI50 (SK-OV-3): 171 µM (inactive); GI50 (MCF7): 113 µM (inactive); GI50 (U-251): 182 µM (inactive); GI50 (EKVX): 204 µM (inactive); GI50 (SF-539): 114 µM (inactive); GI50 (SNB-78): 148 µM (inactive); GI50 (HL-60): 41.9 µM (inactive); GI50 (M14): > 25 µM (inactive); GI50 (BT-549): > 25 µM (inactive); GI50 (NCI-H460): 61.5 µM (inactive); GI50 (OVCAR-8): 129 µM (inactive); GI50 (T47D): 23.9 µM (inactive); GI50 (COLO 205): > 230 µM (inactive); GI50 (CCRF-CEM): 45.8 µM (inactive); GI50 (NCI-H23): 106 µM (inactive); GI50 (HOP-62): 107 µM (inactive)

With `CC1CCC2(OC1)OC1CC3C4CCC5CC(O)CCC5(C)C4CC(=O)OC3(C)C1C2C` (stereo not given) as the compound, how does the GI50 (SK-OV-3) read?
The GI50 was > 100 µM (inactive).

And the GI50 (RXF 393)?
The GI50 was > 100 µM (inactive).

And the GI50 (U-251)?
The GI50 was > 100 µM (inactive).

And the GI50 (EKVX)?
The GI50 was > 100 µM (inactive).

What about the GI50 (SF-295) of the same compound?
Its GI50 is > 100 µM (inactive).

And the GI50 (SF-539)?
Its GI50 is > 100 µM (inactive).

And the GI50 (SNB-78)?
The GI50 was > 100 µM (inactive).

And the GI50 (HCT-15)?
The GI50 was over 100 µM.

What about the GI50 (HL-60) of the same compound?
Its GI50 is > 100 µM (inactive).

What about the GI50 (M14) of the same compound?
The GI50 was > 100 µM (inactive).

What about the GI50 (NCI-H460) of the same compound?
The GI50 was > 100 µM (inactive).

What about the GI50 (OVCAR-8) of the same compound?
The GI50 was > 100 µM (inactive).

And the GI50 (COLO 205)?
Its GI50 is > 100 µM (inactive).

What about the GI50 (CCRF-CEM) of the same compound?
The GI50 was > 100 µM (inactive).

And the GI50 (NCI-H23)?
The GI50 was > 100 µM (inactive).

And the GI50 (HOP-92)?
The GI50 was > 100 µM (inactive).

And the GI50 (HOP-62)?
The GI50 was > 100 µM (inactive).

Which GI50 (SK-OV-3) does the source give for `O=C(CC(C(=O)c1ccsc1)c1cccs1)c1cccs1` (stereo not given) here?
The GI50 was > 100 µM (inactive).

What about the GI50 (RXF 393) of the same compound?
The GI50 was > 100 µM (inactive).

And the GI50 (U-251)?
Its GI50 is > 100 µM (inactive).

And the GI50 (EKVX)?
The GI50 was 42.5 µM (inactive).

What about the GI50 (SF-295) of the same compound?
The GI50 was 37.5 µM (inactive).

And the GI50 (SF-539)?
The GI50 was > 100 µM (inactive).

And the GI50 (SNB-78)?
The GI50 was > 100 µM (inactive).

What about the GI50 (HCT-15) of the same compound?
Its GI50 is 65.5 µM.

And the GI50 (HL-60)?
Its GI50 is 56.8 µM (inactive).

And the GI50 (M14)?
Its GI50 is 59.3 µM (inactive).

And the GI50 (NCI-H460)?
Its GI50 is 49 µM (inactive).

What about the GI50 (OVCAR-8) of the same compound?
Its GI50 is 83.8 µM (inactive).

What about the GI50 (COLO 205) of the same compound?
The GI50 was 94.8 µM (inactive).

And the GI50 (CCRF-CEM)?
Its GI50 is 43.1 µM (inactive).

And the GI50 (NCI-H23)?
The GI50 was > 100 µM (inactive).

And the GI50 (HOP-92)?
The GI50 was > 100 µM (inactive).

What about the GI50 (HOP-62) of the same compound?
The GI50 was > 100 µM (inactive).

Which results are given for `CCOC1c2cc(OC)c(OC)cc2-c2ccc3ccccc3c2N1C` (stereo not given)?
GI50 (SK-OV-3): 22 µM (inactive); GI50 (MCF7): 12.4 µM (inactive); GI50 (RXF 393): 21.7 µM (inactive); GI50 (U-251): 6.41 µM (inactive); GI50 (EKVX): 6.27 µM (inactive); GI50 (SF-295): 24.4 µM (inactive); GI50 (SF-539): 18.2 µM (inactive); GI50 (SNB-78): 33.6 µM (inactive); GI50 (HCT-15): 60.1 µM; GI50 (HL-60): 44.1 µM (inactive); GI50 (M14): 19.3 µM (inactive); GI50 (BT-549): 12.6 µM (inactive); GI50 (NCI-H460): 12.2 µM (inactive); GI50 (OVCAR-8): 12.2 µM (inactive); GI50 (T47D): 4.84 µM (inactive); GI50 (COLO 205): 6.05 µM (inactive); GI50 (CCRF-CEM): 18 µM (inactive); GI50 (NCI-H23): 8 µM (inactive); GI50 (HOP-92): 21.9 µM (inactive); GI50 (HOP-62): 15.7 µM (inactive)
